# In ChEMBL document CHEMBL1833844, “Sulfonamides as selective oestrogen receptor β agonists” (Bioorg Med Chem Lett, 2011):
# Key:
# Estrogen receptor = target: T1, Estrogen receptor (Homo sapiens, UniProt P03372); test: Agonist activity at ERalpha expressed in HEK cells co-expressing beta-lactamase after 18 hrs by beta-lactamase reporter gene assay; type: functional, cell-based, HEK293
# T1 sequence (P03372 whole entry): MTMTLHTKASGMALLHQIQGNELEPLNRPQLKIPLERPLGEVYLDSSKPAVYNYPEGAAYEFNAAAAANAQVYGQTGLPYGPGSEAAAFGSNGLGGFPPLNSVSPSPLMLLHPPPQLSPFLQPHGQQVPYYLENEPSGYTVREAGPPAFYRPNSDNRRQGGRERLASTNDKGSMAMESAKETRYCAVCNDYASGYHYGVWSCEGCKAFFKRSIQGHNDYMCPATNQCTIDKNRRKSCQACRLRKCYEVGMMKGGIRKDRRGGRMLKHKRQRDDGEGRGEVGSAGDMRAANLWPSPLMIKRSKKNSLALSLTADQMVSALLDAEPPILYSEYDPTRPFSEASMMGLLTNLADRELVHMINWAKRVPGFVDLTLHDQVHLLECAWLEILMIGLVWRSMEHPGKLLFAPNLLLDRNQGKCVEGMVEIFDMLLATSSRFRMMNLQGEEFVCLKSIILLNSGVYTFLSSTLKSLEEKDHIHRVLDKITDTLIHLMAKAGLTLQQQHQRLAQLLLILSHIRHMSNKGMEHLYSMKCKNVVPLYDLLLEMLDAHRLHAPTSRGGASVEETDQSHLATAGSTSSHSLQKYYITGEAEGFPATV
# Estrogen receptor beta [1] = target: T2, Estrogen receptor beta (Homo sapiens, UniProt Q92731); test: Agonist activity at ERbeta expressed in […] cells co-expressing beta-lactamase after 18 hrs by beta-lactamase reporter gene assay; type: functional, cell-based
# T2 sequence (Q92731 whole entry): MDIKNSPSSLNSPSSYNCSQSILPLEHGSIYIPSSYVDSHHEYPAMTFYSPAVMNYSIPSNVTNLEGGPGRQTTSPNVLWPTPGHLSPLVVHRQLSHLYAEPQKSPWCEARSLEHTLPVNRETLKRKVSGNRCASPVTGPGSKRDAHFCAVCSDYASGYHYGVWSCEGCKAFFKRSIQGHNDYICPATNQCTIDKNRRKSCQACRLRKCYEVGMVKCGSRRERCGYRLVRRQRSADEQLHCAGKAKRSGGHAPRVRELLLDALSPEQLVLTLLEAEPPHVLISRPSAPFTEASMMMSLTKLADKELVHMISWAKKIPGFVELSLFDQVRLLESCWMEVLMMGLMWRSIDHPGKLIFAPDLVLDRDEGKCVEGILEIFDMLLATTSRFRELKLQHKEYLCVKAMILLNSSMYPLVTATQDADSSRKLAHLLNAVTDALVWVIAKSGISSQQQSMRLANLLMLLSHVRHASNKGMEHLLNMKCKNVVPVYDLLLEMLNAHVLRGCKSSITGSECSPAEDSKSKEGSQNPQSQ
# Estrogen receptor beta [2] = target: T2, Estrogen receptor beta; test: Agonist activity at ERbeta expressed in […] cells co-expressing beta-lactamase at 10 uM after 18 hrs by beta-lactamase reporter gene assay relative to estradiol; type: functional, cell-based
# [3] = target: T3, Estrogen receptor (Homo sapiens) (UniProt P03372); test: Agonist activity at ERalpha expressed in HEK cells co-expressing beta-lactamase at 10 uM after 18 hrs by beta-lactamase reporter gene assay relative to estradiol; type: functional, cell-based; conditions: HEK293
# T3 sequence (whole entry): T1 sequence (P03372 whole entry)
# [4] = Octanol-buffer partition coefficient, log D of the compound at pH 7.4; type: physicochemical
Compound,EC50 (Estrogen receptor),EC50 (Estrogen receptor beta [1]),Emax (Estrogen receptor beta [2]),Emax [3],logD [4]
O=S(=O)(c1ccc(O)cc1)N(CCC(F)(F)F)c1ccc(O)cc1,357 nM,43 nM,104%,87%,–
O=S(=O)(c1ccc(O)cc1)N1[C@@H]2CC[C@H]1C[C@H](CO)C2,3500 nM,> 3000 nM,111%,94%,–
C[C@@](O)(CN(C1CC1)S(=O)(=O)c1ccc(O)cc1)c1ccccc1,> 4560 nM,110 nM,< 20%,85%,–
CCCCC(O)(CN(C1CC1)S(=O)(=O)c1ccc(O)cc1)c1ccccc1 (racemic),> 6510 nM,65 nM,36%,82%,3.9
CC(O)(CN(C1CC1)S(=O)(=O)c1ccc(O)cc1)c1c(F)cccc1F (racemic),3800 nM,51 nM,45%,75%,2.9
CC(O)(CN(C1CC1)S(=O)(=O)c1ccc(O)cc1)c1ccccc1F (racemic),> 10000 nM,48 nM,49%,–,3
Cc1ccc(O)c(CCNS(=O)(=O)c2ccc(O)cc2)c1,–,> 2400 nM,73%,–,–
O=S(=O)(c1ccc(O)cc1)N(CC(O)(c1ccccc1)C(F)(F)F)C1CC1 (racemic),> 2680 nM,14 nM,43%,66%,3.2
CC(O)(CN(C1CC1)S(=O)(=O)c1ccc(O)cc1)c1cc[nH]n1 (racemic),> 10000 nM,1480 nM,86%,–,1.3
CC(O)(CN(C1CC1)S(=O)(=O)c1ccc(O)cc1)c1ccc(O)cc1 (racemic),> 4800 nM,437 nM,82%,–,2

# Continued, values first:
EC50 (Estrogen receptor),EC50 (Estrogen receptor beta [1]),Emax (Estrogen receptor beta [2]),Emax [3],logD [4],Compound
> 1100 nM,84 nM,< 30%,82%,3.4,CCCCN(CC(C)(O)c1ccccc1)S(=O)(=O)c1ccc(O)cc1 (racemic)
> 2610 nM,418 nM,44%,89%,2.9,CC(C)N(CC(C)(O)c1ccccc1)S(=O)(=O)c1ccc(O)cc1 (racemic)
> 5400 nM,79 nM,48%,107%,2.7,C[C@](O)(CN(C1CC1)S(=O)(=O)c1ccc(O)cc1)c1ccccc1
2310 nM,101 nM,47%,79%,2.5,CC(O)(CN(C1CC1)S(=O)(=O)c1ccc(O)cc1)c1ccccc1 (racemic)
> 3200 nM,1100 nM,49%,–,–,CN(CC(C)(O)c1ccccc1)S(=O)(=O)c1ccc(O)cc1 (racemic)
